Experimental data taken from publication PMC8807399, “Synthesis, Characterization, and in vivo Evaluation of a Novel Potent Autotaxin-Inhibitor” (Frontiers in Pharmacology, 2022).

Legend:
MMP-1 = target: T1, MMP-1 (Homo sapiens, UniProt P03956); experiment: Off-target screen MMP-1; assay type: biochemical; details: 10 µM; single point, duplicates
T1 construct: purchased Eurofins CEREP SA

[1] = In vitro microsomal stability, human; assay type: in vitro ADME; details: human microsomes, 1 µM; value of 10 = low clearance, essentially below detection limit
Procedure: Incubations of a test compound at a concentration of 1 µM with microsomes (0.5 mg/ml) from the appropriate species (human, mouse, or rat) plus cofactor NADPH were performed in 96-well plates at 37°C on a TECAN automated liquid handling system (Tecan Group Ltd., Männedorf, Switzerland). After pre-incubation of the test compound with the microsomes for 10 min, the enzymatic reaction was started by the addition of cofactors. Aliquots of the incubations are removed at 1, 3, 6, 9, 15, 25, 35, and 45 min and are then quenched with 1:3 (v/v) acetonitrile containing internal standards. Samples were then cooled and centrifuged before analysis of the supernatant by LC-MS/MS. Logarithmic Peak area ratios (test compound peak area/internal standard peak area) were plotted against incubation time and a linear fit made to the data with emphasis upon the initial rate of compound disappearance. The slope of the fit was then used to calculate the intrinsic clearance: Clint (µL/min/mg protein) = −slope (min-1) * 1,000/[protein concentration (mg/ml)].

5HT2a = target: T2, 5HT2a (Homo sapiens, UniProt P28223); experiment: Off-target screen 5HT2a; assay type: binding; details: 10 µM; single point, duplicates
T2 construct: purchased Eurofins CEREP SA

Glucocorticoid receptor = target: T3, Glucocorticoid receptor (Homo sapiens, UniProt P04150); experiment: Off-target screen Glucocorticoid receptor; assay type: binding; details: 10 µM; single point, duplicates
T3 construct: purchased Eurofins CEREP SA

LPA1 receptor = target: T4, LPA1 receptor (Homo sapiens, UniProt Q92633); experiment: Off-target screen LPA1 receptor; details: 10 µM; single point, duplicates
T4 construct: purchased Eurofins CEREP SA

Beta1-adrenoreceptor = target: T5, Beta1-adrenoreceptor (Homo sapiens, UniProt P08588); experiment: Off-target screen Beta1-adrenoreceptor; assay type: binding; details: 10 µM; single point, duplicates
T5 construct: purchased Eurofins CEREP SA

I/R model rats = experiment: Retinal ischemia/reperfusion (I/R) model; assay type: in vivo, rat; details: for ERG b-wave amplitude: I/R + ATX-i eyes vs control; for ERG a-wave amplitude: I/R + ATX-i group vs control
Procedure: Diets containing compound 13 were manufactured by ssniff Spezialdiäten GmbH (Soest, Germany). Calculations of the daily doses were based on average food intake of rats used in the studies. The regular chow diet for the 60 mg/kg dose was calculated as 8.5 kg and mixed with a solution of 13 in ethanol (4.8%, w/w). The amount of 13 used was 1.0 g per kg of food. After mixing, ethanol was removed in vacuo until dryness. For the preparation of the 20 mg/kg dose, the same procedure was used by applying 0.333 g of 13 per kg of food.
The oral treatment with the ATX-inhibitor 13 (ATX-i; 20 mg/kg; Roche) started 7 days prior to immunization and 3 days prior I/R induction and continued throughout the study. The regular chow diet for the treatment groups was replaced with the same chow diet containing the treatment substance.
An established I/R model was used ([Schmid et al., 2014]; [Renner et al., 2017]). Therefore, rats were anesthetized with a ketamine/xylazine/vetranquil cocktail (0.65/0.65/0.2 ml). One eye per animal was dilated with 5% tropicamide (Pharma Stulln, Stulln, Germany) and anesthetized topically with conjuncain (Bausch and Lomb, Berlin, Germany). Additionally, a pain medication injection of metamizole (Novalgin; Zentiva, Frankfurt am Main, Germany) was administered subcutaneously. IOP was raised to 140 mmHg for 60 min by elevating a saline reservoir connected to a needle, which was placed into the anterior chamber of the eye. Retinal ischemia was confirmed by observing whitening of the retina via an ophthalmoscope (Mini 300; Heine Optotechnik, Herrsching, Germany). Reperfusion was later reassured by observing the returning blood flow. The contralateral eye was used as a control. Analyses were performed 7 and 14 days after ischemia induction.
ERG measurements were performed on all eyes 7 and 14 days after I/R induction as previously described ([Schmid et al., 2014]; [Palmhof et al., 2018]). Before performing the ERG under dim red light, rats were dark adapted overnight. The readings were done using a full-field flash electroretinograph (HMs ERG system, OcuScience, Henderson, NV, United States). After anesthesia with a ketamine/xylazine cocktail (100/4 mg/kg) eyes were dilated and topically anesthetized. Reference electrodes were placed subcutaneously below the right and left ear and a ground electrode was placed in the base of the tail. Silver thread recording electrodes were placed in the center of the cornea. Scotopic flash ERGs were recorded at 0.1, 0.3, 1, 3, 10, and 25 cd*s/m^2 for each eye (7 days: 5-6 eyes/group; 14 days: 6-7 eyes/group). Signals obtained from the corneal surface were then amplified, digitized, and averaged using ERG View 4.380R software (OcuScience).
After explantation, eyes and optic nerves were fixed in 4% paraformaldehyde for 60 min (eyes) or 120 min (optic nerves) and then treated with 30% sucrose overnight. Afterwards, the retinas and optic nerves were embedded in NEG-50 Tissue-Tek medium (Thermo Fisher, Waltham, MA, United States). Cryo-cross sections of the eyes (10 µm) or longitudinal sections of the optic nerves (4 µm) were cut on a microtome (Thermo Fisher), mounted on Histobond Superfrost^+ slides (Thermo Fisher) and fixed in ice cold acetone for 10 min.
Retinal cross-sections from the I/R studies were stained with hematoxylin and eosin (H&E) to visualize retinal layers and changes in the thickness of the layers using standard protocols (7 days: 5-6 retinas/group; 14 days: 6-7 retinas/group). The thickness of the ganglion cell layer (GCL) was analyzed with the measuring tool of the ZEN2012 image analysis software (Zeiss, Oberkochen, Germany). Therefore, they were measured three times and the value was averaged ([Palmhof et al., 2019]).
Longitudinal optic nerve sections (EAG: 5-6 nerves/group, I/R 14 days: 6-7 nerves/group) were stained with H&E and luxol fast blue (LFB). […]

Adenosine A3 respetor = target: T6, Adenosine A3 respetor (Homo sapiens, UniProt P0DMS8); experiment: Off-target screen Adenosine A3; assay type: binding; details: 10 µM; single point, duplicates
T6 construct: purchased Eurofins CEREP SA

PCP receptor = experiment: Off-target screen PCP receptor; details: 10 µM; single point, duplicates
Sigma = experiment: Off-target screen Sigma; details: 10 µM; single point, duplicates
Serotonin transporter = target: T7, Serotonin transporter (Homo sapiens, UniProt P31645); experiment: Off-target screen Serotonin transporter; assay type: binding; details: 10 µM; single point, duplicates
T7 construct: purchased Eurofins CEREP SA
T7 sequence (P31645 whole entry): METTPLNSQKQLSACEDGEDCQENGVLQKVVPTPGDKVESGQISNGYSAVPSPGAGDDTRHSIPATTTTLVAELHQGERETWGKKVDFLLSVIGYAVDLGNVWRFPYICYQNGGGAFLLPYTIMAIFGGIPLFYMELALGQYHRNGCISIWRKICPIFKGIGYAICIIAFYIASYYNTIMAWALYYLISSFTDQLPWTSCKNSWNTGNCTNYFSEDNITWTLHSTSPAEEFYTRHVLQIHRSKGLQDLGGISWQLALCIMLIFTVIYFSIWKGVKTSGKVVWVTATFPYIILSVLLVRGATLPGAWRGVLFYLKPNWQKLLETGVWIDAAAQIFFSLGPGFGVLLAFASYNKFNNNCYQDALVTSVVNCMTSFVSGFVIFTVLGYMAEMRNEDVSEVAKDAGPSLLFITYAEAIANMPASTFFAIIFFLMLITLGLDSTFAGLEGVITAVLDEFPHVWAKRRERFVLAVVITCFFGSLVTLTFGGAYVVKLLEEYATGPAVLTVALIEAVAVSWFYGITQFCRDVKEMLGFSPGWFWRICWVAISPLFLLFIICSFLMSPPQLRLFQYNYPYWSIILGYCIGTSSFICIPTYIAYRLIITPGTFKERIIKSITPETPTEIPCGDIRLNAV

T1 sequence (P03956 100-469): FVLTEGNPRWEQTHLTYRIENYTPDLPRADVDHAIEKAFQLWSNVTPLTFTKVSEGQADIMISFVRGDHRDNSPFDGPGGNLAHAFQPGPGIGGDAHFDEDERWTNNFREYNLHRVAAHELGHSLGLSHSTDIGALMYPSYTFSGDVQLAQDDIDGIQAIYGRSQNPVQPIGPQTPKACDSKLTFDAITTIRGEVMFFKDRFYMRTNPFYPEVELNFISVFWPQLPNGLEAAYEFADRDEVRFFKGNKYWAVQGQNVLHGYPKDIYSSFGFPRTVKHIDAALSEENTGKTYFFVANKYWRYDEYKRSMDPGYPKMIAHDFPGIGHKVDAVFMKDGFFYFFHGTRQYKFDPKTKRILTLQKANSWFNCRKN
T2 sequence (P28223 whole entry): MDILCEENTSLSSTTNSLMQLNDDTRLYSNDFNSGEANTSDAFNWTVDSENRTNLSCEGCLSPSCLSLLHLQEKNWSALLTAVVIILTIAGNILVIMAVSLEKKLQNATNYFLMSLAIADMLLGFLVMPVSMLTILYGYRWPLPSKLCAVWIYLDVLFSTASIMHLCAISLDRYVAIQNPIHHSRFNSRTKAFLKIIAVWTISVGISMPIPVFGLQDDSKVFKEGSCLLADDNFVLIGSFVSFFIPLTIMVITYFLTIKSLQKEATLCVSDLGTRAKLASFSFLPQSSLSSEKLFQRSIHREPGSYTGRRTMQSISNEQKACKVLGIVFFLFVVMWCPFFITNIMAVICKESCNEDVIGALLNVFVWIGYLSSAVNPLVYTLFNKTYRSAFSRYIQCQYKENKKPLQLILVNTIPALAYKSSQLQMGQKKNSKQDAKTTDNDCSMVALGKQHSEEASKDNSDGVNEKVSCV
T3 sequence (P04150 whole entry): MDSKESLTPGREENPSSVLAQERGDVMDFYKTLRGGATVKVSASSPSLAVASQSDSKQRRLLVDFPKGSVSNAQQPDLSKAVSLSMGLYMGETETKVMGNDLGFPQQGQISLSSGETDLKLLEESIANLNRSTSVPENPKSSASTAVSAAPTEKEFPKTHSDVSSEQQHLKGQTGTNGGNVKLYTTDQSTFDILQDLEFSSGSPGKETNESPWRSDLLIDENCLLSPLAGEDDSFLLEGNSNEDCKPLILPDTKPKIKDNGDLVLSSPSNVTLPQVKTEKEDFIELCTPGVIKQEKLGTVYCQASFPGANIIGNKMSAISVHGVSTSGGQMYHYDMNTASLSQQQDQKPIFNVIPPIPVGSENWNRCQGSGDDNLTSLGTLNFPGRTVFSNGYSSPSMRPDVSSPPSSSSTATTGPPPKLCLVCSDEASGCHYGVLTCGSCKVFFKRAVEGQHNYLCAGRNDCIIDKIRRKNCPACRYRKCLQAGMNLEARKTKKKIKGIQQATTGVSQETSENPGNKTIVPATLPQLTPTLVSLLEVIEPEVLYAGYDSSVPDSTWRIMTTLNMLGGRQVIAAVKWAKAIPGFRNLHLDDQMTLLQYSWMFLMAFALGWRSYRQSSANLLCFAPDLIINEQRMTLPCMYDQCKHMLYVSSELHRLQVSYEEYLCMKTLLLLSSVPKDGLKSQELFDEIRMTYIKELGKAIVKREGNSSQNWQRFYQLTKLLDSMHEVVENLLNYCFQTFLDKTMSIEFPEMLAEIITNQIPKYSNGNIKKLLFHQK
T5 sequence (P08588 whole entry): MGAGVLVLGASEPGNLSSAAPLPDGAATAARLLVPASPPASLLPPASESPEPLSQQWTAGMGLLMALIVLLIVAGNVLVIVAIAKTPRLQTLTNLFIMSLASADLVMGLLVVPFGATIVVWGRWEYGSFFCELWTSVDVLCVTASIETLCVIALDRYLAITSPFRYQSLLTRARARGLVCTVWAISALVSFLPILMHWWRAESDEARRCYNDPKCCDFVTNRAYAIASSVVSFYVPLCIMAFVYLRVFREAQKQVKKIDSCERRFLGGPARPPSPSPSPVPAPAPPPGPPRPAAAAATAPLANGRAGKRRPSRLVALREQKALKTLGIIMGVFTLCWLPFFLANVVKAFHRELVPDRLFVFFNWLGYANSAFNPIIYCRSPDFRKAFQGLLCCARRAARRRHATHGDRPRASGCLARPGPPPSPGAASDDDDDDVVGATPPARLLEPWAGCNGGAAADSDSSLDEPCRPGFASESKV
T6 sequence (P0DMS8 whole entry): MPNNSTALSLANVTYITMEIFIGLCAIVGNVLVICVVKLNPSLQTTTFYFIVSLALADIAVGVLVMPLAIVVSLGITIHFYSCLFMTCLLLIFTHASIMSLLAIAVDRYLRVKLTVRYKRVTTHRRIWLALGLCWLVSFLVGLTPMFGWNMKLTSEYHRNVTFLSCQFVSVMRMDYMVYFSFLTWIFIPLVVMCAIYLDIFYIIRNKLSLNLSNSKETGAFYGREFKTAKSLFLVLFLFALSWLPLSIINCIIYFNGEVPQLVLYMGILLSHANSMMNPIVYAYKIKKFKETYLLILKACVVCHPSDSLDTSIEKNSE
T4 sequence (Q92633 whole entry): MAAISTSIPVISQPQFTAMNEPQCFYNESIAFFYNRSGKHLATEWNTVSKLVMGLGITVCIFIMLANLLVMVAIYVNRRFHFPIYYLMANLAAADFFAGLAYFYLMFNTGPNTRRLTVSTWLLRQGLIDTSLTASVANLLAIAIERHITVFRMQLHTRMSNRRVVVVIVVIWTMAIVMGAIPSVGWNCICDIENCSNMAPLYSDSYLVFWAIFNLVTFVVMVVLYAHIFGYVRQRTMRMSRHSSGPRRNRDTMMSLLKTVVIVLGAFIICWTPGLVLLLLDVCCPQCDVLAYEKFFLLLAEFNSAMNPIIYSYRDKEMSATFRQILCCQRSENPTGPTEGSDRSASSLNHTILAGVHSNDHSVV

O=C(OCc1ccc(OC(F)(F)F)cc1)N1C[C@@H]2CN(C(=O)c3ccc4[nH]nnc4c3)C[C@H]2C1 [Compound 13, (3aS,6aS)-5-(1H-Benzotriazole-5-carbonyl)-hexahydro-pyrrolo[3,4-c]pyrrole-2-carboxylic acid 4-trifluoromethoxy-benzyl ester]
MMP-1 (h) [% inhib] (MMP-1): -9 % inhib
Mic CL h [1]: 10/10/10 µL/m/mg prot
5HT2a (h) [% inhib] (5HT2a): 39 % inhib
Glucocorticoid receptor (h) [% inhib] (Glucocorticoid receptor): 6 % inhib
LPA1 receptor (h) [% inhib] (LPA1 receptor): -19 % inhib
Beta1-adrenoreceptor (h) [% inhib] (Beta1-adrenoreceptor): 2 % inhib
ERG b-wave amplitude (I/R model rats; 7 days (p < 0.001)): significantly lower
ERG b-wave amplitude (I/R model rats; 14 days (p < 0.001)): significantly declined
ERG a-wave amplitude (I/R model rats; 7 days, all light intensities (p < 0.050)): significant decrease
ERG a-wave amplitude (I/R model rats; 14 days, all light intensities (p > 0.050), vs I/R increased at 0.1 cd s/m^2 (p = 0.027)): comparable to the control ones
GCL thickness (I/R model rats; I/R + ATX-i group, 20 mg/kg food admix, 7 days, I/R 4.03 ± 0.84, control 6.28 ± 1.57): 4.34 ± 1.63 µm
β-III tubulin protein level (Western Blot), retina (I/R model rats; I/R + ATX-i group, 7 days, I/R 0.18 ± 0.17, control 1.39 ± 0.52): 0.28 ± 0.30
Iba1 protein level (Western Blot), retina (I/R model rats; I/R + ATX-i group, 7 days, I/R 0.61 ± 0.05, control 0.47 ± 0.11): 0.50 ± 0.21
GFAP+ area, retina (I/R model rats; I/R + ATX-i group, 7 days, I/R 3.44 ± 1.52, control 2.46 ± 1.41): 2.98 ± 1.13 area [%]/section
GFAP protein level (Western Blot), retina (I/R model rats; I/R + ATX-i group, 7 days, I/R 4.00 ± 1.95, control 0.71 ± 0.33): 3.90 ± 1.14
Cleaved caspase 3+ apoptotic RGCs (I/R model rats; I/R + ATX-i group, 7 days, I/R 5.97 ± 1.93, control 2.62 ± 1.59): 6.21 ± 1.62 cells/mm
Brn-3a+ RGC number, retina (I/R model rats; I/R + ATX-i group, 7 days, I/R 10.95 ± 2.48, control 48.29 ± 3.94, p = 0.008 vs I/R): 17.61 ± 1.63 cells/mm
ED1+ and Iba1+ co-labeled cells, retina (I/R model rats; I/R + ATX-i group, 7 days, I/R 34.74 ± 6.57, control 0.81 ± 0.91, p = 0.045 vs I/R): 26.91 ± 4.48 cells/mm
Iba1+ microglia, retina (I/R model rats; I/R + ATX-i group, 7 days, I/R 38.44 ± 7.75, control 5.65 ± 2.29, p = 0.045 vs I/R): 29.04 ± 5.19 cells/mm
β-III tubulin protein level (Western Blot), retina (I/R model rats; I/R + ATX-i group, 14 days, I/R 0.06 ± 0.03, control 0.60 ± 0.08): 0.13 ± 0.08
Iba1 protein level (Western Blot), retina (I/R model rats; I/R + ATX-i group, 14 days, I/R 0.95 ± 0.54, control 0.28 ± 0.19): 0.69 ± 0.44
GFAP protein level (Western Blot), retina (I/R model rats; I/R + ATX-i group, 14 days, I/R 1.60 ± 0.19, control 0.19 ± 0.06): 1.31 ± 0.66
GCL thickness (I/R model rats; I/R + ATX-i group, 14 days, I/R 2.76 ± 0.16, control 5.28 ± 0.43, p = 0.003 vs I/R): 3.54 ± 0.34 µm
Activated microglia (ED1+ and Iba1+), optic nerve (I/R model rats; I/R + ATX-i group, 14 days, I/R 5.28 ± 0.76, control 0.06 ± 0.06): 5.71 ± 1.04 cells/image
Cleaved caspase 3+ cells (I/R model rats; I/R + ATX-i group, 14 days, I/R 5.38 ± 0.83, control 2.58 ± 0.72): 5.02 ± 1.52 cells/mm
Iba1+ cells, optic nerve (I/R model rats; I/R + ATX-i group, 14 days, I/R 5.65 ± 0.75, control 2.74 ± 1.06): 6.10 ± 1.09 cells/image
Brn-3a+ RGC number, retina (I/R model rats; I/R + ATX-i group, 14 days, I/R 5.81 ± 2.85, control 56.32 ± 11.74, p = 0.017 vs I/R): 21.62 ± 8.84 cells/mm
GFAP+ area, retina (I/R model rats; I/R + ATX-i group, 14 days, I/R 7.02 ± 2.71, control 3.35 ± 0.98): 5.01 ± 1.70 area [%]/section
ED1+ and Iba1+ activated microglia, retina (I/R model rats; I/R + ATX-i group, 14 days, I/R 34.20 ± 9.12, control 2.99 ± 1.26): 28.27 ± 7.63 cells/mm
Iba1+ microglia, retina (I/R model rats; I/R + ATX-i group, 14 days, I/R 45.5 ± 11.78, control 26.28 ± 3.33): 41.17 ± 9.33 cells/mm
GFAP score, optic nerve (I/R model rats; I/R + ATX-i group, 14 days, score 0-2, I/R 1.13 ± 0.13, control 0.89 ± 0.30): 1.23 ± 0.25
Optic nerve LFB score (I/R model rats; I/R + ATX-i group, 14 days, score 0-2, I/R 1.19 ± 0.25, control 0.54 ± 0.42): 1.09 ± 0.17
Optic nerve SMI-32 score (I/R model rats; I/R + ATX-i group, 14 days, score 0-2, I/R 1.27 ± 0.31, control 0.47 ± 0.27): 1.05 ± 0.21
Optic nerve H&E score (I/R model rats; I/R + ATX-i group, 14 days, score 0-4, I/R 2.43 ± 0.37, control 0.77 ± 0.27): 2.25 ± 0.44
Adenosine A3 respetor (h) [% inhib] (Adenosine A3 respetor): 33 % inhib
PCP receptor (r) [% inhib] (PCP receptor): -16 % inhib
Sigma (h) [% inhib] (Sigma): 38 % inhib
Serotonin transporter (h) [% inhib] (Serotonin transporter): 28 % inhib
